These results are taken from patent publication US20220378763A1, “COMPOUND FOR TREATMENT OF ACUTE INFLAMMATION IN THE MYOCARDIUM” (CALPROTECT AB, priority 2019, published 2022).

The structures appear in SMILES notation.

The test system of test [1] is C57BL/6 mice with MI induced by permanent coronary artery ligation. The test is described as follows: S100A8/A9 in plasma (ELISA) and myocardium (immunohistochemistry) 3 days post-MI. In kind it is in vivo, mouse. Here is the method: Subsequently the hearts were fixed in 4% (w/v) paraformaldehyde and embedded in paraffin. The hearts were sectioned transversely from the apex to the level of the suture, and 6 μm thick sections were collected at 390 μm intervals. The sections were mounted on glass slides and stained with Van Gieson or Masson trichrome stain for quantitative analysis of scar size. Alarmin S100A8/A9 was detected using mouse anti-S100A8/A9 IgG1 antibody (Abcam, ab 130234, 1:100 dilution, O/N 4° C.). Goat anti-mouse IgG1 HRP-conjugated secondary antibody (Abcam, ab 97240, 1 h RT) was used and the staining was developed with ImmPACT™ DAB (Vector, SK-4105) chromogen as substrate. The slides were subsequently scanned using an Aperio digital pathology slide scanner (Leica Biosystems), and images were captured with the ImageScope software (Leica Biosystems). Left ventricle area and the infarcted area were measured on each section by using the BioPix iQ 2.5.0 software (Biopix AB). The size of the post-MI myocardial scar was expressed as percentage of the left ventricle volume below the coronary ligature.
Plasma levels of S100A8/A9 heterodimer was measured by DuoSet®ELISA (R&D Systems, DY8596-05), according to manufacturer instructions. All the samples were diluted 1:100 prior to analysis. Biotinylated goat anti-mouse S100A8/A9 antibody was used as […] antibody and streptavidin-HRP was used for detection. […]
For orientation: An ELISA detects its analyte on a solid surface through an enzyme-linked reagent.

In test [2] the test system is Nur77 in bone marrow-derived monocytes. Briefly: Nur77 expression in cultured bone marrow-derived monocytes stimulated with S100A9. In kind it is cell-based, mouse. The settings on record: S100A9 20 μg/mL, ABR-238901 100 μM, 24 h. Here is the method: To obtain bone marrow-derived monocytes, bone marrow cells were isolated from femur and tibia of wild-type mice (C57BL/6NRJ) (n=3). Cells were cultured in RPMI-1640 (GIBCO Invitrogen) with 100 U/ml penicillin/streptomycin (GIBCO Invitrogen), 10% heat-inactivated fetal calf serum (FCS; GIBCO Invitrogen) and 20 ng/ml M-CSF (Peprotech) for 3 days. On day 3, unattached cells were collected, and the monocyte phenotype was confirmed by flow cytometry as CD45^+CD11b^+CD115^+ cells. The cells were re-suspended in medium and seeded at a density of 1×10^5 cells/ml. Extracellular S100A9 (20 μg/mL) with or without the S100A9 antagonist ABR-238901 at a concentration of 100 μM were incubated in the presence of 10 μM ZnCl2 (Sigma) and 2 mM CaCl2 for 15 minutes and added to the monocyte culture. Recombinant human endotoxin-free S100A9 protein was provided by Active Biotech AB. Following 24 h stimulation, intracellular Nur77 expression was analysed by flow cytometry.

In test [3] the test system is C57BL/6 mice with sepsis induced by bacterial lipopolysaccharide. The test is described as follows: LPS-induced sepsis: echocardiography. The test is classed as in vivo, mouse. The settings on record: 30 mg/kg i.p. at 0 and 6 h after LPS. Here is the method: Female C57BL/6NRJ mice, 10 weeks of age, were purchased from Janvier Labs and housed under 12 h:12 h light:dark cycles with access to food and water ad libitum. The mice were randomly assigned to the two treatment groups, n=5 mice per group. Sepsis was induced by intraperitoneal (i.p.) injection of 5 mg/kg bacterial lipopolysaccharide (Sigma-Aldrich) in all animals. Immediately thereafter and 6 h later, the mice received treatment with 30 mg/kg ABR-238901 or an equivalent volume of PBS administered i.p. The mice were monitored daily to ensure their well-being. All mouse studies were approved by the Animal Research Ethics Committee of Lund University.
Transthoracic echocardiography was performed at baseline before induction of sepsis, and at 6 h, 12 h and 24 h using the Vevo 3100 platform (VisualSonics) equipped with a MX550D imaging transducer. Anesthesia was induced with 2% Isoflurane (AbbVie) and maintained with 1.25% Isoflurane throughout imaging. Hair was removed using depilatory cream before the application of pre-warmed ultrasound gel. Parasternal long axis recordings were performed in the plane containing the aortic valves and a maximal apex view. Analysis was carried out using the VevoLab software (Visual Sonics). Briefly, the perimeter and long axis of the left ventricle were traced at the end of diastole and at the end of systole and used to calculate left ventricular end-systolic and end-diastolic volumes. Left ventricular stroke volume was calculated as the difference between the left ventricular end-diastolic and end-systolic volumes. Left ventricular ejection fraction was calculated as percentage stroke volume out of the end-diastolic volume. Cardiac output was calculated by multiplying the stroke volume with the heart rate at the time of the examination.

In test [4] the test system is BALB/c mice with induced myocarditis. The test is described as follows: Myocarditis induced by cardiac α-myosin peptide: echocardiography. In kind it is in vivo, mouse. Conditions: 30 mg/kg/day orally from day 7. Here is the method: Female BALB/c mice, 8 weeks of age, were purchased from Taconic and housed under 12 h:12 h light:dark cycles with access to food and water ad libitum. To induce myocarditis, all mice were injected subcutaneously (s.c.) with 100 μg murine cardiac a-myosin heavy chain peptide (Ac-RSLKLMATLFSTYASADR-OH, Anaspec) emulsified 1:1 in complete Freund's adjuvant containing 1 mg/mL heat-killed Mycobacterium tuberculosis H37Ra (Sigma-Aldrich), on days 0 and 7 (FIG. 17A). ABR-238901 was administered orally ad-libitum diluted in meglumine buffer (to prevent precipitation in the drinking bottle during the course of the experiment) at a dose of 30 mg/kg/day, starting on day 7 and throughout the course of the experiment (n=9 mice). Fluid intake was closely monitored during the experiment to ensure an appropriate drug dosage. Mice with induced myocarditis drinking meglumine buffer alone ad-libitum were used as controls (n=12 mice). Mice received daily attendance to ensure their well-being. All mouse studies were approved by the Animal Research Ethics Committee of Lund University.
Transthoracic echocardiography was performed as described under Example 7. Cardiac function was evaluated by echocardiography at baseline and at 21, 28 and 35 days after the first injection of murine cardiac a-myosin heavy chain peptide.

Take `COc1ncc(S(=O)(=O)Nc2cncc(Cl)c2O)cc1Br` [ABR-238901, 5-bromo-N-(5-chloro-4-hydroxypyridin-3-yl)-6-methoxypyridine-3-sulfonamide]: the “Plasma levels of S100A8/A9” value in test [1] (ELISA) is “reduced”. Further, the “S100A8/A9 presence in the infarcted myocardium” value in test [1] (immunohistochemical staining) is listed as “reduced”. In addition, the “S100A9-induced increase of Nur77 expression” value in test [2] was “inhibited”. For the same molecule, the “Left ventricular ejection fraction (LVEF)” value in test [3] (12 h) was found to be 44.7%; in test [3] (24 h) it was 54.74%; in test [4] (day 28) it was 52%; in test [4] (day 35), 53%. For the same molecule, the results for the Cardiac output in test [3] (24 h), in test [4] (day 28) and in test [4] (day 35) were 9.17 mL/min, 11.26 mL/min and 12.03 mL/min, respectively.
